Converted amounts (≈) assume the structure as drawn. Like-named read-outs stand apart in the source and are kept apart here.
Assays:
[1] = test system: Sporotrichum schenkii CBS.34035; assay: minimal inhibitory concentration in Sabouraud medium; assay type: cell-based; conditions: Sporotrichum
Excerpt: Sporotrichum schenkii CBS.34035
(§1) As a medium Saboroud medium was employed.

[2] = test system: Fusarium monoliforme DSM.11778; assay: as above; assay type: cell-based; conditions: Fusarium
Excerpt: Fusarium monoliforme DSM.11778
as §1

[3] = test system: Aspergillus fumigatus CBS.11326; assay: as above; assay type: cell-based; conditions: Aspergillus fumigatus
Excerpt: Aspergillus fumigatus CBS.11326
as §1

Candida lipolytic = assay: minimal inhibitory concentration, proliferating fungi; assay type: cell-based
Excerpt: as §1

[4] = test system: Aspergillus flavus CBS.24765; assay: minimal inhibitory concentration in Sabouraud medium; assay type: cell-based; conditions: Aspergillus flavus
Excerpt: Aspergillus flavus CBS.24765
as §1

[5] = test system: Epidermophyton floccosum OKI/IV.; assay: as above; assay type: cell-based; conditions: for MIC: Epidermophyton floccosum, read-out: minimal inhibitory concentration
Excerpt: Epidermophyton floccosum OKI/IV.
as §1

[6] = test system: Candida tropicalis CBS.433; assay: as above; assay type: cell-based; conditions: Candida tropicalis
Excerpt: Candida tropicalis CBS.433 "3"
as §1

[7] = test system: Penicillium digitatum CCM.F-382; assay: as above; assay type: cell-based; conditions: Penicillium digitatum
Excerpt: Penicillium digitatum CCM.F-382
as §1

[8] = test system: Trichophyton rubrum CBS.30338; assay: as above; assay type: cell-based; conditions: for MIC: Trichophyton rubrum
Excerpt: Trichophyton rubrum CBS.30338
as §1

[9] = test system: Fusarium graminocorum DSM.11802; assay: as above; assay type: cell-based
Excerpt: Fusarium graminocorum DSM.11802
as §1

Candida krusei 79/K47 = assay: as above; conditions: Pichia kudriavzevii, read-out: minimal inhibitory concentration
[10] = test system: Microsporum gypseum ver. vinosum CBS.10064; assay: as above; assay type: cell-based; conditions: Nannizzia gypsea
Excerpt: Microsporum gypseum ver. vinosum CBS.10064
as §1

Verticillium dahlise = assay: activity against phytopathogenic fungi; assay type: cell-based
[11] = test system: Fusarium oxysporum DSM.10975; assay: minimal inhibitory concentration in Sabouraud medium; assay type: cell-based
Excerpt: Fusarium oxysporum DSM.10975
as §1

Botrytis cinerea = assay: activity against phytopathogenic fungi; assay type: cell-based
Phytophtora infestans = assay type: cell-based
[12] = test system: Aspergillus niger CCM.F-330; assay: minimal inhibitory concentration in Sabouraud medium; assay type: cell-based; conditions: Aspergillus niger
Excerpt: Aspergillus niger CCM.F-330
as §1

[13] = test system: Cryptococcus neoform. 78/K16; assay: as above; conditions: read-out: minimal inhibitory concentration
[14] = test system: Penicillium chrysogenium CBS.19646; assay: as above; assay type: cell-based; conditions: Penicillium
Excerpt: Penicillium chrysogenium CBS.19646
as §1

Venturia = assay: activity against phytopathogenic fungi; assay type: cell-based
[15] = test system: Penicillium digitatum CBS.31948; assay: minimal inhibitory concentration in Sabouraud medium; assay type: cell-based; conditions: Penicillium digitatum
Excerpt: Penicillium digitatum CBS.31948
as §1

Sclerotinia sclerotiorum = assay: activity against phytopathogenic fungi; assay type: cell-based
Taphrina deformans = assay: activity against phytopathogenic fungi; assay type: cell-based
Ascochyta pisi = assay: activity against phytopathogenic fungi; assay type: cell-based
Verticillium albo-atrum = assay: activity against phytopathogenic fungi; assay type: cell-based
[16] = test system: Aspergillus niger CBS.12648; assay: minimal inhibitory concentration in Sabouraud medium; assay type: cell-based; conditions: for MIC: Aspergillus niger
Excerpt: Aspergillus niger CBS.12648
as §1

[17] = test system: Penicillium chrysogenium CCM.F-362; assay: as above; assay type: cell-based; conditions: Penicillium
Excerpt: Penicillium chrysogenium CCM.F-362
as §1

[18] = test system: Saccharomyces cerevisiae OKI.1282; assay: as above; assay type: cell-based; conditions: Saccharomyces cerevisiae, OKI.1282, 48 h, 48 hours
Excerpt: Saccharomyces cerevisiae OKI.1282
as §1

[19] = test system: Fusarium culmorum DSM.11425; assay: as above; assay type: cell-based
Excerpt: Fusarium culmorum DSM.11425
as §1

[20] = test system: Trichophyton mentagrophytes CBS.50148; assay: as above; assay type: cell-based; conditions: Trichophyton mentagrophytes
Excerpt: Trichophyton mentagrophytes CBS.50148
as §1

Cercospora beticola = assay: activity against phytopathogenic fungi; assay type: cell-based
Candida albicans CBS.562 = assay: minimal inhibitory concentration in Sabouraud medium; assay type: cell-based; conditions: 48 hours
Excerpt: Candida albicans CBS.562 "2"
as §1

Cc1ccc(N2C(=O)CC(S(=O)(=O)C3CCCCC3)C2=O)cc1 (stereo not shown)
MIC ([1]; CBS.34035, 72 h, 72 hours): 5 µg/mL (≈ 14.9 µM) | MIC ([1]; CBS.34035, 288 h, 288 hours): 25 µg/mL (≈ 74.5 µM) | MIC ([2]; DSM.11778, 72 h, 72 hours): 100 µg/mL (≈ 298 µM) | MIC ([2]; DSM.11778, 144 h, 144 hours): 150 µg/mL (≈ 447 µM) | MIC ([2]; DSM.11778, 288 h, 288 hours): 150 µg/mL (≈ 447 µM) | MIC ([3]; CBS.11326, 72 h, 72 hours): 50 µg/mL (≈ 149 µM) | MIC ([3]; CBS.11326, 144 h, 144 hours): 150 µg/mL (≈ 447 µM) | MIC ([3]; CBS.11326, 288 h, 288 hours): 150 µg/mL (≈ 447 µM) | MIC (Candida lipolytic; 24 hours): 5 µg/mL (≈ 14.9 µM) | MIC (Candida lipolytic; 48 hours): 10 µg/mL (≈ 29.8 µM) | MIC ([4]; CBS.24765, 72 h, 72 hours): 150 µg/mL (≈ 447 µM) | MIC ([4]; CBS.24765, 144 h, 144 hours): 250 µg/mL (≈ 745 µM) | minimal inhibitory concentration ([5]; 72 hours): 2.5 µg/mL (≈ 7.45 µM) | MIC ([5]; 72 h): 5 µg/mL (≈ 14.9 µM) | MIC ([5]; 144 h): 5 µg/mL (≈ 14.9 µM) | MIC ([5]; 288 h): 5 µg/mL (≈ 14.9 µM) | MIC ([6]; CBS.433, 24 h, 24 hours): 100 µg/mL (≈ 298 µM) | MIC ([6]; CBS.433, 48 h, 48 hours): 150 µg/mL (≈ 447 µM) | MIC ([7]; CCM.F382, 72 h, 72 hours): 25 µg/mL (≈ 74.5 µM) | MIC ([7]; CCM.F382, 144 h, 144 hours): 25 µg/mL (≈ 74.5 µM) | MIC ([7]; CCM.F382, 288 h, 288 hours): 75 µg/mL (≈ 224 µM) | minimal inhibitory concentration ([8]; 144 hours): 2.5 µg/mL (≈ 7.45 µM) | minimal inhibitory concentration ([8]; 288 hours): 2.5 µg/mL (≈ 7.45 µM) | MIC ([8]; CBS.30338, 144 h, 144 hours): 5 µg/mL (≈ 14.9 µM) | MIC ([8]; CBS.30338, 288 h, 288 hours): 5 µg/mL (≈ 14.9 µM) | MIC ([9]; 72 hours): 50 µg/mL (≈ 149 µM) | MIC ([9]; 144 hours): 50 µg/mL (≈ 149 µM) | MIC ([9]; 288 hours): 50 µg/mL (≈ 149 µM) | MIC (Candida krusei 79/K47; 79/K47, 24 h): 2.5 µg/mL (≈ 7.45 µM) | MIC (Candida krusei 79/K47; 79/K47, 48 h): 10 µg/mL (≈ 29.8 µM) | MIC ([10]; 72 h): 10 µg/mL (≈ 29.8 µM) | MIC ([10]; 144 h): 25 µg/mL (≈ 74.5 µM) | MIC ([10]; 288 h): 25 µg/mL (≈ 74.5 µM) | activity against Verticillium dahlise (Verticillium dahlise): active | MIC ([11]; 72 hours): 150 µg/mL (≈ 447 µM) | MIC ([11]; 144 hours): 200 µg/mL (≈ 596 µM) | MIC ([11]; 288 hours): 200 µg/mL (≈ 596 µM) | activity against Botrytis cinerea (Botrytis cinerea): active | activity against Phytophtora infestans (Phytophtora infestans): active | MIC ([12]; CCM.F330, 72 h, 72 hours): 100 µg/mL (≈ 298 µM) | MIC ([12]; CCM.F330, 144 h, 144 hours): 150 µg/mL (≈ 447 µM) | MIC ([12]; CCM.F330, 288 h, 288 hours): 250 µg/mL (≈ 745 µM) | MIC ([13]; 24 h): 1 µg/mL (≈ 2.98 µM) | MIC ([13]; 48 h): 10 µg/mL (≈ 29.8 µM) | MIC ([14]; CBS.19646, 72 h, 72 hours): 50 µg/mL (≈ 149 µM) | MIC ([14]; CBS.19646, 144 h, 144 hours): 75 µg/mL (≈ 224 µM) | MIC ([14]; CBS.19646, 288 h, 288 hours): 75 µg/mL (≈ 224 µM) | activity against Venturia (Venturia): active | MIC ([15]; CBS.31948, 72 h, 72 hours): 10 µg/mL (≈ 29.8 µM) | MIC ([15]; CBS.31948, 144 h, 144 hours): 10 µg/mL (≈ 29.8 µM) | MIC ([15]; CBS.31948, 288 h, 288 hours): 10 µg/mL (≈ 29.8 µM) | activity against Sclerotinia sclerotiorum (Sclerotinia sclerotiorum): active | activity against Taphrina deformans (Taphrina deformans): active | activity against Ascochyta pisi (Ascochyta pisi): active | activity against Verticillium albo-atrum (Verticillium albo-atrum): active | minimal inhibitory concentration ([16]; 144 hours): 50 µg/mL (≈ 149 µM) | MIC ([16]; CBS.12648, 72 h, 72 hours): 25 µg/mL (≈ 74.5 µM) | MIC ([16]; CBS.12648, 144 h, 144 hours): 75 µg/mL (≈ 224 µM) | MIC ([16]; CBS.12648, 288 h, 288 hours): 75 µg/mL (≈ 224 µM) | MIC ([17]; CCM.F362, 72 h, 72 hours): 75 µg/mL (≈ 224 µM) | MIC ([17]; CCM.F362, 144 h, 144 hours): 150 µg/mL (≈ 447 µM) | MIC ([17]; CCM.F362, 288 h, 288 hours): 150 µg/mL (≈ 447 µM) | MIC [18]: 25 µg/mL (≈ 74.5 µM) | MIC ([19]; 72 hours): 75 µg/mL (≈ 224 µM) | MIC ([19]; 144 hours): 150 µg/mL (≈ 447 µM) | MIC ([19]; 288 hours): 150 µg/mL (≈ 447 µM) | MIC ([20]; CBS.50148, 72 h, 72 hours, read-out: minimal inhibitory concentration): 2.5 µg/mL (≈ 7.45 µM) | MIC ([20]; CBS.50148, 144 h, 144 hours, read-out: minimal inhibitory concentration): 2.5 µg/mL (≈ 7.45 µM) | MIC ([20]; CBS.50148, 288 h, 288 hours, read-out: minimal inhibitory concentration): 5 µg/mL (≈ 14.9 µM) | MIC ([20]; CBS.50148, read-out: Minimal inhibitory concentration inhibiting the growth): 2.5 µg/mL (≈ 7.45 µM) | activity against Cercospora beticola (Cercospora beticola): active | minimal inhibitory concentration (Candida albicans CBS.562): 25 µg/mL (≈ 74.5 µM) | MIC (Candida albicans CBS.562; Candida albicans, CBS.562, 48 h): 50 µg/mL (≈ 149 µM)

Source: patent US4364958A, “1-Substituted-3-cycloalkyl-sulfonyl-pyrrolidine-2,5-dione derivatives and fungicidal compositions thereof” (Chinoin Gyogyszer es Vegyeszeti Termekek Gyara Rt., priority 1979, dated 1982)
